According to US8937091B2 (Japan Science and Technology Agency, priority 2009, dated 2015):

Tests used:
[1] = tested on: IICR (IP3 induced calcium release) in CHO cells; test: Assay of IICR (IP3 induced calcium release)-inhibiting action; format: cell-based, Chinese hamster; conditions: Cricetulus griseus, CHO, CHO cells, 10 μM ATP, read-out: IICR level (percentage of inhibition); for inhibition at 10 µM: test compound 10 μmol; for inhibition at 30 µM: test compound 30 μmol; for inhibition at 100 µM: test compound 100 μmol
In short: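 CHO cell medium replaced with calcium-containing BSS; compound added 1 min later, then 10 μM ATP after a further 2 min. Percent inhibition of the ATP-evoked rise in intracellular calcium determined at each compound concentration.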

[2] = tested on: SOCE (store operated calcium entry) in CHO cells; test: Assay of SOCE (store operated calcium entry)-inhibiting action; format: cell-based, Chinese hamster; conditions: Cricetulus griseus, CHO, CHO cells, thapsigargin, read-out: SOCE level (percentage of inhibition); for inhibition at 10 µM: test compound 10 μmol; for inhibition at 30 µM: test compound 30 μmol; for inhibition at 100 µM: test compound 100 μmol
In short: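 CHO cells in calcium-free BSS received compound, then 1 μM thapsigargin 2 min later to deplete stores; after 9 min, 2 mM calcium chloride (final) added. Percent inhibition of the rise in intracellular calcium determined at various compound concentrations.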

TGase = TGase (Cavia porcellus, UniProt P08587); format: biochemical
Procedure: An enzyme reaction solution (0.1 ml) (100 mM HEPES-NaOH, pH 7.5, 1 mM CaCl2, 20 μM monodansyl cadaverine, 0.05 mg/ml N,N-dimethylcasein, 5 μg/ml TGase) was introduced into wells of a 96-well plate (Nunc, 96 Well Black Plate with Clear Bottom). A test compound was added in concentrations of 0.3, 1.0, 3.0, 10, and 30 μM. The solution and the compound were sufficiently mixed while preventing foaming. The plate was set in the fluorescence drug screening system FDSS 3000 (Hamamatsu Photonics K.K.). TGase-inhibiting activity of the compound was calculated by assaying changes in fluorescence wavelength (at 340 nm) per unit time. […] The assay level at which TGase activity decreased by half in the presence of the test compound was designated as TG 50.
Hereafter, the numerals in parentheses written after the TG level, the SOCE level, and the IICR level correspond to the test compound concentrations. The number following the name of each title compound used in the Examples below represents a compound ID number designated arbitrarily by the present inventors.

Compound | inhibition at 10 µM [1] | inhibition at 30 µM [1] | inhibition at 100 µM [1] | inhibition at 10 µM [2] | inhibition at 30 µM [2] | inhibition at 100 µM [2] | TG-activity-inhibiting action or protein-crosslinking-inhibiting action (in words) (TGase)
CC(C)CN(CCC(=O)c1ccc(Br)s1)CC(C)C [Example 384, 2-(N,N-diisobutyl)aminoethyl-5-bromo-2-thienylketone] | 0% | 35% | 70% | 0% | 10% | 100% | –
CCCCCCN(CCCCCC)CCC(=O)c1ccc(Cl)s1 [Example 385, 2-(N,N-dihexyl)aminoethyl-5-chloro-2-thienylketone] | 0% | 14% | 0% | 0% | 95% | 53% | –
N[C@@H](CSSC[C@@H](C(=O)O)N(CCC(=O)c1ccc(Cl)s1)CCC(=O)c1ccc(Cl)s1)C(=O)O [Example 387, N,N-bis(2-(5-chloro-2-thiophenoyl)ethyl)cystine] | 0% | 0% | 70% | 20% | 40% | 50% | –
NCCSSCCN(CCC(=O)c1ccc(I)cc1)CCC(=O)c1ccc(I)cc1 [Example 388, N,N-bis(4-iodobenzoylethyl)cystamine] | 0% | 0% | 70% | 20% | 40% | 50% | –
CC(C)N(CCC(=O)c1ccc(I)s1)Cc1ccccc1 [Example 390, 2-(N-isopropyl-N-benzyl)aminoethyl-5-iodo-2-thienylketone] | 0% | 0% | 70% | 20% | 40% | 50% | –
CC(C)N(CCC(=O)c1ccc(Br)s1)C(C)C [Example 395, 2-diisopropylaminoethyl-5-bromo-2-thienylketone] | 14% | 67% | 83% | 20% | 40% | 50% | –
CC(C)N(CCC(=O)c1ccc(Cl)s1)C(C)C [Example 396, 2-diisopropylaminoethyl-5-chloro-2-thienylketone] | 2% | 72% | 83% | 20% | 40% | 50% | –
CC(C)N(CCC(=O)c1ccncc1)C(C)C [Example 397, 2-diisopropylaminoethyl-4-pyridylketone] | 0% | 0% | 10% | 20% | 40% | 50% | –
N#Cc1ccc(C(=O)CCNCCSSCCNCCC(=O)c2ccc(C#N)cc2)cc1 [Example 398] | 1% | 44% | 80% | 20% | 40% | 50% | –
COC(=O)C(CSSCC(NCCC(=O)c1ccc(C#N)cc1)C(=O)OC)NCCC(=O)c1ccc(C#N)cc1 (stereo not drawn) [Example 399, N,N-bis(4-cyanobenzoylethyl)cystinemethylester] | 0% | 0% | 70% | 20% | 40% | 50% | –
COC(=O)C(CSSCC(NCCC(=O)c1nccs1)C(=O)OC)NCCC(=O)c1nccs1 (stereo not drawn) [Example 400] | 19% | 0% | 13% | 20% | 40% | 50% | –
COC(=O)C(CSSCC(NCCC(=O)c1ccco1)C(=O)OC)NCCC(=O)c1ccco1 (stereo not drawn) [Example 401, N,N-bis(2-furoylethyl)cystinemethylester] | 31% | 1% | 57% | 20% | 40% | 50% | –
COC(=O)C(CSSCC(NCCC(=O)c1cnccn1)C(=O)OC)NCCC(=O)c1cnccn1 (stereo not drawn) [Example 402, N,N-bis(2-pyrazinoylethyl)cystinemethylester] | 39% | 12% | 28% | 20% | 40% | 50% | –
COC(=O)C(CSSCC(NCCC(=O)c1ccc(C)s1)C(=O)OC)NCCC(=O)c1ccc(C)s1 (stereo not drawn) [Example 403, N,N-bis(2-(5-methyl-2-thiophenoyl)ethyl)cystinemethylester] | 57% | 17% | 83% | 20% | 40% | 50% | –
COC(=O)C(CSSCC(NCCC(=O)c1ccc2c(c1)Cc1ccccc1-2)C(=O)OC)NCCC(=O)c1ccc2c(c1)Cc1ccccc1-2 (stereo not drawn) [Example 404] | 54% | 84% | 94% | 20% | 40% | 50% | –
CC(C)(C)N(CCC(=O)c1ccc(I)s1)Cc1ccccc1 [Example 405, 2-(N-t-butyl-N-benzyl)aminoethyl-5-iodo-2-thienylketone] | 78% | 73% | 35% | 20% | 40% | 50% | –
COC(=O)C(CSSCC(NCCC(=O)c1ccc(I)s1)C(=O)OC)NCCC(=O)c1ccc(I)s1 (stereo not drawn) [Example 406, N,N-bis(5-iodo-2-thiophenoylethyl)cystinemethylester] | 49% | 43% | 62% | 20% | 40% | 50% | –
CC(C)(C)N(CCC(=O)c1sccc1Br)Cc1ccccc1 [Example 407, 2-(N-t-butyl-N-benzyl)aminoethyl-3-bromo-2-thienylketone] | 89% | 83% | 77% | 20% | 40% | 50% | –
CC(C)(C)N(CCC(=O)c1ncccc1Br)Cc1ccccc1 [Example 408, 2-(N-t-butyl-N-benzyl)aminoethyl-3-bromo-2-pyridylketone] | 76% | 83% | 77% | 20% | 40% | 50% | –
COC(=O)C(CSC)NCCC(=O)c1ccc(Br)s1 (stereo not drawn) [Example 409, N,N-bis(2-(5-bromo-2-thiophenoyl)ethyl)cystinemethylester] | 26% | 76% | 81% | 20% | 40% | 50% | –
O=C(CCNCCSSCCNCCC(=O)c1ccc(I)s1)c1ccc(I)s1 [Example 410] | 59% | 65% | 88% | 20% | 40% | 50% | –
CCC(C)N(CCC(=O)c1ccc(I)s1)C(C)CC (stereo not drawn) [Example 411] | 76% | 80% | 82% | 20% | 40% | 50% | –
CCC(C)N(CCC(=O)c1sccc1Br)C(C)CC (stereo not drawn) [Example 413] | 48% | 81% | 78% | 20% | 40% | 50% | –
C=CC(=O)c1ccccc1 [Example 8184, acryloylbenzene] | – | – | – | – | – | – | high
C=CC(=O)c1ccc(C)cc1 [Example 8185, 4-methyl-1-acryloylbenzene] | – | – | – | – | – | – | high
C=CC(=O)c1ccc(F)cc1 [Example 8186, 4-fluoro-1-acryloylbenzene] | – | – | – | – | – | – | high
C=CC(=O)c1cc2c(cc1Br)OCO2 [Example 8200, 2-bromo-4,5-dioxymethylene-1-acryloylbenzene] | – | – | – | – | – | – | high
C=CC(=O)c1ccc2c(C)cccc2c1 [Example 8211, 1-methyl-6-acryloylnaphthalene] | – | – | – | – | – | – | high
C=CC(=O)c1ccc2ccccc2c1 [Example 8213, 2-acryloylnaphthalene] | – | – | – | – | – | – | high
